Test results reported in ChEMBL document CHEMBL5442219.

Columns and labels:
Conditions in all cases: Compound concentration 10 µM
[1] = target: 5-hydroxytryptamine receptor 1B (Homo sapiens) (UniProt P28222)
Description: PDSP Primary Binding target: HTR1B - Compounds are tested at 10 uM concentration, plate are incubated at room temperature in the dark for 90 minutes. Reaction are stopped by vacuum filtration onto 0.3% polyethyleneimine soaked filter mats using Filtermate harvester. Scintilation cocktail is then melted onto microwave-dried filters on a hot plate and the radio activity is counted in Microbia counter.

[2] = target: Sodium-dependent serotonin transporter (Homo sapiens) (UniProt P31645)
Description: PDSP Primary Binding target: SLC6A4 - Compounds are tested at 10 uM concentration, plate are incubated at room temperature in the dark for 90 minutes. Reaction are stopped by vacuum filtration onto 0.3% polyethyleneimine soaked filter mats using Filtermate harvester. Scintilation cocktail is then melted onto microwave-dried filters on a hot plate and the radio activity is counted in Microbia counter.

[3] = target: T1, Muscarinic acetylcholine receptor M2 (Homo sapiens) (UniProt P08172)
T1 sequence (whole entry): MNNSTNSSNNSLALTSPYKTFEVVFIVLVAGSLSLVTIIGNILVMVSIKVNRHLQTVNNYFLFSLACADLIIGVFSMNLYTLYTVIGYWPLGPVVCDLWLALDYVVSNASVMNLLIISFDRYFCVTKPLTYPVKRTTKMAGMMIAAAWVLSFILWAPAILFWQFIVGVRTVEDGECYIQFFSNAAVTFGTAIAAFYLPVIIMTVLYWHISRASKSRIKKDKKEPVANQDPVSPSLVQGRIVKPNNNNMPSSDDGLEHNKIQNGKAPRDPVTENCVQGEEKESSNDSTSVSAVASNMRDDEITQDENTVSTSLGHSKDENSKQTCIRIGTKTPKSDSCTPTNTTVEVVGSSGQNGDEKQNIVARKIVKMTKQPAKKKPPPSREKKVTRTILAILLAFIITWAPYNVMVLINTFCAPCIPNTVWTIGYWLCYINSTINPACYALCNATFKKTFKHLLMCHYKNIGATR
Description: PDSP Primary Binding target: CHRM2 - Compounds are tested at 10 uM concentration, plate are incubated at room temperature in the dark for 90 minutes. Reaction are stopped by vacuum filtration onto 0.3% polyethyleneimine soaked filter mats using Filtermate harvester. Scintilation cocktail is then melted onto microwave-dried filters on a hot plate and the radio activity is counted in Microbia counter.

[4] = target: T2, Alpha-1D adrenergic receptor (Homo sapiens) (UniProt P25100)
T2 sequence (whole entry): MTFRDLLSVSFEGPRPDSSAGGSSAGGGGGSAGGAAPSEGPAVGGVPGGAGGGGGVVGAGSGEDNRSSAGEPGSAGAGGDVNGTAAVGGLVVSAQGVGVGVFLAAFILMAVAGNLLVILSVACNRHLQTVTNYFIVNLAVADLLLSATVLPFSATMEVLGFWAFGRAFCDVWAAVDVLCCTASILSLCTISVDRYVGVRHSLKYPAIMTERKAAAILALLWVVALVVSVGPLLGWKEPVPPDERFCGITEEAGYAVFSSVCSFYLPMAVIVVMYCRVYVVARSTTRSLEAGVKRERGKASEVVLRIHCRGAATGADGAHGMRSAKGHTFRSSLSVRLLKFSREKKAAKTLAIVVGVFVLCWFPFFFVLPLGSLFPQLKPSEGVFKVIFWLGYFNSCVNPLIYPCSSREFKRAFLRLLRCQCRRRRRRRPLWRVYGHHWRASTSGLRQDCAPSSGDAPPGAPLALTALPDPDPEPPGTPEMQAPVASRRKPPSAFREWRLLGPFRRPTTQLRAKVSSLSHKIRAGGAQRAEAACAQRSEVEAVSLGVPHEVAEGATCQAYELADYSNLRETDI
Description: PDSP Primary Binding target: ADRA1D - Compounds are tested at 10 uM concentration, plate are incubated at room temperature in the dark for 90 minutes. Reaction are stopped by vacuum filtration onto 0.3% polyethyleneimine soaked filter mats using Filtermate harvester. Scintilation cocktail is then melted onto microwave-dried filters on a hot plate and the radio activity is counted in Microbia counter.

[5] = target: T3, Alpha-2A adrenergic receptor (Homo sapiens) (UniProt P08913)
T3 sequence (whole entry): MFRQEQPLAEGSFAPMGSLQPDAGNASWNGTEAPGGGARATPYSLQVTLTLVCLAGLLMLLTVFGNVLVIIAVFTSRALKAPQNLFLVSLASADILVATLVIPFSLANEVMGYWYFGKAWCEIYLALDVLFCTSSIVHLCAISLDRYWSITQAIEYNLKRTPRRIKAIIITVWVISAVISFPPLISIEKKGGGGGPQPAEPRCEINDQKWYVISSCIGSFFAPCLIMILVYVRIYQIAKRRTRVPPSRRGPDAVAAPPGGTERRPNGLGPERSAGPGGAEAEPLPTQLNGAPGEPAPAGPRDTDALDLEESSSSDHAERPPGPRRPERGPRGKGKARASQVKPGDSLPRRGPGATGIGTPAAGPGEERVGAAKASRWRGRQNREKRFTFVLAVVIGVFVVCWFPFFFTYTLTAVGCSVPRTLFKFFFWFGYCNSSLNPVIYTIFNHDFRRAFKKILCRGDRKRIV
Description: PDSP Primary Binding target: ADRA2A - Compounds are tested at 10 uM concentration, plate are incubated at room temperature in the dark for 90 minutes. Reaction are stopped by vacuum filtration onto 0.3% polyethyleneimine soaked filter mats using Filtermate harvester. Scintilation cocktail is then melted onto microwave-dried filters on a hot plate and the radio activity is counted in Microbia counter.

[6] = target: T4, Muscarinic acetylcholine receptor M5 (Homo sapiens) (UniProt P08912)
T4 sequence (whole entry): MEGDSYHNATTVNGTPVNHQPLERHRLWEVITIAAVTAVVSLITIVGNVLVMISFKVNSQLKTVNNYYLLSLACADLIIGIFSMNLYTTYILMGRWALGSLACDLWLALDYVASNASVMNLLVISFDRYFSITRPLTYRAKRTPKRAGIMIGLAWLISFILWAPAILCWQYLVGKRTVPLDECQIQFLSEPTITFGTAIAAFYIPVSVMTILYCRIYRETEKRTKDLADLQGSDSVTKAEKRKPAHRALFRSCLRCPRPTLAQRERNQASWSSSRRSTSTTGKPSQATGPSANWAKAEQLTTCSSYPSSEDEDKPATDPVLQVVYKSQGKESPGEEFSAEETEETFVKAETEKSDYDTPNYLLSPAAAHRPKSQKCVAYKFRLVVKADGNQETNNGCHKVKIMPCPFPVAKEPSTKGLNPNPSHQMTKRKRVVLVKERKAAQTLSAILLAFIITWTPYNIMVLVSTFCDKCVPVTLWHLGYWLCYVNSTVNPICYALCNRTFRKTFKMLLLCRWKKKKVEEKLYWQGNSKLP
Description: PDSP Primary Binding target: CHRM5 - Compounds are tested at 10 uM concentration, plate are incubated at room temperature in the dark for 90 minutes. Reaction are stopped by vacuum filtration onto 0.3% polyethyleneimine soaked filter mats using Filtermate harvester. Scintilation cocktail is then melted onto microwave-dried filters on a hot plate and the radio activity is counted in Microbia counter.

Sequence of 5-hydroxytryptamine receptor 1B (Homo sapiens) (P28222 whole entry): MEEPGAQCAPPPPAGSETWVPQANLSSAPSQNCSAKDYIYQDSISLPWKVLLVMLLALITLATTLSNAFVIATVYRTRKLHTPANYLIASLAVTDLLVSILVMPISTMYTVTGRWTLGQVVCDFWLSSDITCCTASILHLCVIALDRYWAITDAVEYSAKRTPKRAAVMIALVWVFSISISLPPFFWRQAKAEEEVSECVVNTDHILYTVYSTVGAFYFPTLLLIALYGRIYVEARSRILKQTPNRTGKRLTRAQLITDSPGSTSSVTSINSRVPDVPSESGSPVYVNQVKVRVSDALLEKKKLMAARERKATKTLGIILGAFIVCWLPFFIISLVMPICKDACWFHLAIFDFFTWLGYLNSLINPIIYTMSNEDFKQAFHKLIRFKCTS
Sequence of Sodium-dependent serotonin transporter (Homo sapiens) (P31645 whole entry, looked up): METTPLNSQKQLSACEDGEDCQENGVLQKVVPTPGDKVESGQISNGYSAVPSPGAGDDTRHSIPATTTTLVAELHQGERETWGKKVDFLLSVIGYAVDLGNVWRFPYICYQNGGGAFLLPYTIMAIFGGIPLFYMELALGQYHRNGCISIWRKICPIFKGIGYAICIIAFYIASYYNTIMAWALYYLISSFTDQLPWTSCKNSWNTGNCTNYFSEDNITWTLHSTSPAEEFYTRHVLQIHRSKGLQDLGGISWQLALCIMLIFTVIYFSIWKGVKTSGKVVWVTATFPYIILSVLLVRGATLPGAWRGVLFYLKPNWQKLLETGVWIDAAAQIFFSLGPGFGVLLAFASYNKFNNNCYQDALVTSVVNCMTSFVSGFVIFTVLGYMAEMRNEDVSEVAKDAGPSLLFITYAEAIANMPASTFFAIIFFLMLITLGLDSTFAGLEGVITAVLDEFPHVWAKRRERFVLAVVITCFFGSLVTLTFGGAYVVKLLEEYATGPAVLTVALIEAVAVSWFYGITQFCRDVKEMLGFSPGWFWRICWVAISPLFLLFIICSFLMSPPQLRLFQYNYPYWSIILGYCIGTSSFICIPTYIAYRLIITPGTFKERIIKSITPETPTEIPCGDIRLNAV

Compound | inhibition [1] | inhibition [2] | inhibition [3] | inhibition [4] | inhibition [5] | inhibition [6]
Cc1csc(NC(=O)c2cc(F)cc(Oc3cncnc3)c2)n1 | -4.65% | 21.2% | -7.43% | – | – | –
Cc1nnn(-c2ccc(-c3ccc(C4(C(=O)O)CC4)cc3)cc2)c1NC(=O)O[C@H](C)c1ccccc1 | -3.56% | – | – | 23.9% | 0.57% | –
COC1CCN(c2cccc(-c3cc(NC(C)=O)nc(-n4nc(C)cc4C)n3)n2)CC1 | – | – | – | 17.4% | – | -2.53%
COc1ccnc(N2CCC3(CCCN(Cc4c[nH]c5ccccc45)C3=O)CC2)n1 | – | – | -2.35% | – | – | –
